The values that follow come from patent US4005214A (Hoffmann-La Roche Inc., priority 1974, dated 1977).

The conditions of data set [1]: pH of about 9; cited from earlier work.
The test system of another data set is Escherichia coli. Kind of data set: activity (CD 50) against Escherichia coli upon subcutaneous administration to mice. It counts as in vivo.
Data set [2] in a line: acute toxicity in mice (LD 50). It counts as in vivo. The note with it: mouse, in vivo, iv, intravenous administration, read-out: LD 50 (Lethal Dose) i.v.
Another data set relates to mice. Kind of data set: acute toxicity in mice (LD 50). It counts as in vivo. The note with it: for LD 50 (Lethal Dose) s.c.: subcutaneous administration.

Each structure is given as a SMILES string. Structures can show the parent of a compound that is named as a salt.

Regarding `CC1(C)S[C@@H]2[C@H](NC(=O)[C@H](N)c3ccc(O)cc3)C(=O)N2[C@H]1C(=O)O` [Amoxicillin, D-(-)-alpha-amino-parahydroxybenzyl penicillin], the “stability at high pH” value in data set [1] is “very unstable”.
`CC1(C)S[C@@H]2[C@H](NC(=O)[C@H](N)c3ccc(O)cc3)C(=O)N2[C@H]1C(=O)O` [X, choline salt of amoxicillin]: the ED50 in the data set with Escherichia coli (sc, read-out: CD 50 (Curative Dose)) was determined as 5.9 mg/kg. The LD50 in data set [2] lay within 250 to 500 mg/kg. The “LD 50 (Lethal Dose) s.c.” value in the data set on mice is 2000 to 4000 mg/kg.
Take `CC1(C)S[C@@H]2[C@H](NC(=O)[C@H](N)c3ccc(O)cc3)C(=O)N2[C@H]1C(=O)O` [Y, N-methyl-D-glucamine salt of amoxicillin]: the “CD 50 (Curative Dose)” value in the data set with Escherichia coli is 5.0 mg/kg. Moreover, the “LD 50 (Lethal Dose) i.v.” value with mice (intravenous administration) lay within 500 to 1000 mg/kg. Besides, the “LD 50 (Lethal Dose) s.c.” value with mice was over 5000 mg/kg.
